According to ChEMBL document CHEMBL1138399, “Novel poly(ADP-ribose) polymerase-1 inhibitors” (Bioorg Med Chem Lett, 2007):

Key:
[1] = test system: PC-12; experiment: Recovery of NAD+ in hydrogen peroxide treated PC12 cells at 1 uM relative to control; format: functional, Rattus norvegicus
[2] = test system: PC-12; experiment: Maximum recovery of NAD+ in hydrogen peroxide treated PC12 cells at 30 uM relative to control; format: functional, Rattus norvegicus
[3] = test system: PC-12; experiment: Maximum recovery of NAD+ in hydrogen peroxide treated PC12 cells at 10 uM relative to control; format: functional, Rattus norvegicus
[4] = test system: PC-12; experiment: Maximum recovery of NAD+ in hydrogen peroxide treated PC12 cells at 3 uM relative to control; format: functional, Rattus norvegicus
[5] = biological target: Poly [ADP-ribose] polymerase 1 (Homo sapiens, UniProt P09874); experiment: Inhibition of human recombinant PARP1 in U251MG cells by CometAssay; format: cell-based, U-251
Chain of Poly [ADP-ribose] polymerase 1 (P09874 whole entry): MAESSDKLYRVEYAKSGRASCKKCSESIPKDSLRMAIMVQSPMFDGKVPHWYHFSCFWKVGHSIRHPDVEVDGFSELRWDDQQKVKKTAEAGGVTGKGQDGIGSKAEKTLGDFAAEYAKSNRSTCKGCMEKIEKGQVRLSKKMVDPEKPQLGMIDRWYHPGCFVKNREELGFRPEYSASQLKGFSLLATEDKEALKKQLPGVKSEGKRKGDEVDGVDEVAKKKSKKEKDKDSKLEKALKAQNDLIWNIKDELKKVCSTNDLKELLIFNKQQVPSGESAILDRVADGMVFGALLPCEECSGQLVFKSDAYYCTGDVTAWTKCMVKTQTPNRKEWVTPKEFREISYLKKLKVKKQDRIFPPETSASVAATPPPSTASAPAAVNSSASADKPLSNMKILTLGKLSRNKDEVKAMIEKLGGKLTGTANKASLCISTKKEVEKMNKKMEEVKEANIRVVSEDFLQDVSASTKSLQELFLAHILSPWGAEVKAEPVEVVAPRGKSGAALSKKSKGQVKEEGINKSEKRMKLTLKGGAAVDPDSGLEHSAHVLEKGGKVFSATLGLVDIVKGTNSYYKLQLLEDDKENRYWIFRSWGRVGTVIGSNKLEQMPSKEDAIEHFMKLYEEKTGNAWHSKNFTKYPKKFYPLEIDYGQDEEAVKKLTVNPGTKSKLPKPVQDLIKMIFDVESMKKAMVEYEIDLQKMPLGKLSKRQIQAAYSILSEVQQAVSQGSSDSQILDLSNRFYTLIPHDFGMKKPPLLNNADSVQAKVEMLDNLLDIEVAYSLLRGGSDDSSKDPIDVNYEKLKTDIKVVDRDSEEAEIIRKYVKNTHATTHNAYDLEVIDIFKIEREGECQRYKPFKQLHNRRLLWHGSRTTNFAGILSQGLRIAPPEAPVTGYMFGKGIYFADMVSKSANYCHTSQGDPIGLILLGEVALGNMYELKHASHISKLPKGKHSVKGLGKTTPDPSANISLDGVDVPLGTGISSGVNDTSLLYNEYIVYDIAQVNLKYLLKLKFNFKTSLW

SMILES	Activity [1] [%]	Activity [2] [%]	Activity [3] [%]	Activity [4] [%]	IC50 [5] [nM]
O=C1NC(=O)c2c1c1c(c3[nH]c4ccccc4c23)CCC1	30	–	–	–	–
CC(C)(C)C(=O)OCc1nc(-c2ccc3[nH]c4c5c(c6c(c4c3c2)C(=O)NC6=O)CCC5)cs1	14	27	–	–	–
CCNC(=O)NCc1nc(-c2ccc3[nH]c4c5c(c6c(c4c3c2)C(=O)NC6=O)CCC5)cs1	15	–	22	–	–
Cc1sc(N)nc1-c1ccc2[nH]c3c4c(c5c(c3c2c1)C(=O)NC5=O)CCC4	37	–	–	38	–
CNc1nc(-c2ccc3[nH]c4c5c(c6c(c4c3c2)C(=O)NC6=O)CCC5)cs1	22	56	–	–	–
O=C1NC(=O)c2c1c1c(c3[nH]c4ccc(-c5csc(-c6ccno6)n5)cc4c23)CCC1	11	27	–	–	66
O=C1NC(=O)c2c1c1c(c3[nH]c4ccc(-c5csc(CNC6O[C@H](CO)[C@@H](O)[C@H](O)[C@H]6O)n5)cc4c23)CCC1 (some centres not stated)	0	0	–	–	17
CC(=O)Nc1nc(-c2ccc3[nH]c4c5c(c6c(c4c3c2)C(=O)NC6=O)CCC5)cs1	10	34	–	–	–
O=C(CBr)c1ccc2[nH]c3c4c(c5c(c3c2c1)C(=O)NC5=O)CCC4	32	49	–	–	–
CC(C)C(=O)NCc1nc(-c2ccc3[nH]c4c5c(c6c(c4c3c2)C(=O)NC6=O)CCC5)cs1	10	33	–	–	–
Cc1nc(-c2ccc3[nH]c4c5c(c6c(c4c3c2)C(=O)NC6=O)CCC5)cs1	19	63	–	–	–
Cc1nc(-c2ccc3[nH]c4c5c(c6c(c4c3c2)C(=O)NC6=O)CCC5)c(Br)s1	16	57	–	–	–
CC(C)(C)OC(=O)NC(CCCc1nc(-c2ccc3[nH]c4c5c(c6c(c4c3c2)C(=O)NC6=O)CCC5)cs1)C(=O)OC(C)(C)C (configuration not stated)	17	–	27	–	46
CC(=O)NCc1nc(-c2ccc3[nH]c4c5c(c6c(c4c3c2)C(=O)NC6=O)CCC5)cs1	20	51	–	–	–
CC(C)CC(=O)NCc1nc(-c2ccc3[nH]c4c5c(c6c(c4c3c2)C(=O)NC6=O)CCC5)cs1	13	30	–	–	–
O=C1NC(=O)c2c1c1c(c3[nH]c4ccc(-c5csc(CNC(=O)C6CC6)n5)cc4c23)CCC1	11	16	–	–	–

SMILES	Activity [1] [%]	Activity [2] [%]	Activity [3] [%]	Activity [4] [%]	IC50 [5] [nM]
NC(CCCc1nc(-c2ccc3[nH]c4c5c(c6c(c4c3c2)C(=O)NC6=O)CCC5)cs1)C(=O)O.O=C(O)C(F)(F)F (configuration not stated)	7	47	–	–	22
CCC(=O)NCc1nc(-c2ccc3[nH]c4c5c(c6c(c4c3c2)C(=O)NC6=O)CCC5)cs1	16	20	–	–	–
O=C1NC(=O)c2c1c1c(c3[nH]c4ccc(-c5csc(CNC(=O)C6CCCC6)n5)cc4c23)CCC1	21	29	–	–	–
NCc1ccc2[nH]c3c4c(c5c(c3c2c1)C(=O)NC5=O)CCC4	84	100	–	–	18
CS(=O)(=O)Cc1nc(-c2ccc3[nH]c4c5c(c6c(c4c3c2)C(=O)NC6=O)CCC5)cs1	16	62	–	–	–
CC(C)(C)S(=O)(=O)Cc1nc(-c2ccc3[nH]c4c5c(c6c(c4c3c2)C(=O)NC6=O)CCC5)cs1	33	51	–	–	–
O=C(NCc1nc(-c2ccc3[nH]c4c5c(c6c(c4c3c2)C(=O)NC6=O)CCC5)cs1)OCc1ccccc1	17	46	–	–	–
CS(=O)(=O)NCc1nc(-c2ccc3[nH]c4c5c(c6c(c4c3c2)C(=O)NC6=O)CCC5)cs1	22	28	–	–	18
CCCCC(=O)NCc1nc(-c2ccc3[nH]c4c5c(c6c(c4c3c2)C(=O)NC6=O)CCC5)cs1	15	34	–	–	–
CC(=O)c1ccc2[nH]c3c4c(c5c(c3c2c1)C(=O)NC5=O)CCC4	35	57	–	–	–
CC(C)(C)OC(=O)Cc1nc(-c2ccc3[nH]c4c5c(c6c(c4c3c2)C(=O)NC6=O)CCC5)cs1	20	49	–	–	–
CCCC(=O)NCc1nc(-c2ccc3[nH]c4c5c(c6c(c4c3c2)C(=O)NC6=O)CCC5)cs1	19	29	–	–	–
Nc1nc(-c2ccc3[nH]c4c5c(c6c(c4c3c2)C(=O)NC6=O)CCC5)cs1	48	100	–	–	–
N=C(N)Nc1nc(-c2ccc3[nH]c4c5c(c6c(c4c3c2)C(=O)NC6=O)CCC5)cs1	19	53	–	–	–
Br.NCc1nc(-c2ccc3[nH]c4c5c(c6c(c4c3c2)C(=O)NC6=O)CCC5)cs1	20	–	41	–	–
